{
  "source": "patent US20040052761A1",
  "about": "“Localized delivery system for cancer drugs, phenstatin, using N-isopropylacrylamide” (priority 2002, published 2004)",
  "origin": "cited, not measured here",
  "key": {"tubulin [1]": {"tested_on": "tubulin", "settings": "reference (1)"}, "tubulin [2]": {"tested_on": "tubulin", "settings": "reference (1)", "remark": "listed apart in the source"}},
  "data": [
    {"smiles": "COc1ccc(C(=O)c2cc(OC)c(OC)c(OC)c2)cc1O", "note": "[Phenstatin]", "values": [
      {"measurement": "inhibition of the binding of colchicines to tubulin", "setting": "tubulin [1]", "value": "potent inhibitor"},
      {"measurement": "inhibition of tubulin polymerization", "setting": "tubulin [2]", "value": "potent inhibitor"}
    ]}
  ]
}
